Test results published in the supplement of paper PMC11061612.

Key:
Assay in all cases: combination Emax (second highest fraction inhibited in the dose matrix, 72 h); higher = more inhibition; extreme values may be limits of the assay
[1] = system: H9 (T-Cell Non-Hodgkin's Lymphoma)
Method in brief: (§1)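 Cell lines in DMEM/F12 or RPMI with 10% FBS were plated in 1536-well plates, held 24 hours at 37°C, 5% CO2, then given two-drug dose matrices for 72 hours (DMSO typically 0.2%). Viability was read by CellTiter-Glo 2.0 luminescence and scaled as inhibition from 0 (vehicle wells) to 1 (blank wells). Combination Emax is the second-highest inhibition in the matrix; Bliss excess is observed combination effect minus expected EA + EB − EA·EB, EA and EB being single-agent effects.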

[2] = system: NCCIT (Other Solid Carcinomas)
Method in brief: as §1

[3] = system: IM-95 (Gastric Carcinoma)
Method in brief: as §1

[4] = system: NCI-H929 (Plasma Cell Myeloma)
Method in brief: as §1

[5] = system: MOLM-13 (Acute Myeloid Leukemia)
Method in brief: as §1

[6] = system: KP-3 (Pancreatic Carcinoma)
Method in brief: as §1

[7] = system: HCC1419 (Breast Carcinoma)
Method in brief: as §1

[8] = system: JHH-4 (Hepatocellular Carcinoma)
Method in brief: as §1

[9] = system: MOG-G-CCM (Low Grade Glioma)
Method in brief: as §1

[10] = system: KU812 (Chronic Myelogenous Leukemia)
Method in brief: as §1

[11] = system: NCI-H520 (Squamous Cell Lung Carcinoma)
Method in brief: as §1

[12] = system: 8505C (Thyroid Gland Carcinoma)
Method in brief: as §1

[13] = system: PC-3 (Prostate Carcinoma)
Method in brief: as §1

[14] = system: KY821 (Acute Myeloid Leukemia)
Method in brief: as §1

[15] = system: NCI-H526 (Small Cell Lung Carcinoma)
Method in brief: as §1

SJSA-1 (Osteosarcoma) = system: SJSA-1 (Osteosarcoma)
Method in brief: as §1

[16] = system: CHSA8926 (Chondrosarcoma)
Method in brief: as §1

[17] = system: ST486 (Burkitt's Lymphoma)
Method in brief: as §1

G-361 (Melanoma) = system: G-361 (Melanoma)
Method in brief: as §1

[18] = system: KMS-12-BM (Plasma Cell Myeloma)
Method in brief: as §1

Row | Compound | combination Emax [1] | combination Emax [2] | combination Emax [3] | combination Emax [4] | combination Emax [5] | combination Emax [6] | combination Emax [7] | combination Emax [8] | combination Emax [9] | combination Emax [10] | combination Emax [11] | combination Emax [12] | combination Emax [13] | combination Emax [14] | combination Emax [15] | combination Emax (SJSA-1 (Osteosarcoma)) | combination Emax [16] | combination Emax [17] | combination Emax (G-361 (Melanoma)) | combination Emax [18]
1 | COc1nnc2ccc(N3CCC(c4ccc(OCCN5CCN(C)C(=O)[C@H]5C)cc4)CC3)nn12 [AZD5153] + CC1(C)CCC(CN2CCN(c3ccc(C(=O)NS(=O)(=O)c4ccc(NCC5CCOCC5)c([N+](=O)[O-])c4)c(Oc4cnc5[nH]ccc5c4)c3)CC2)=C(c2ccc(Cl)cc2)C1 [Venetoclax] (first compound max 1 µM, 7x7, partner max 1 µM) | 1 | 0.807 | 0.333 | 0.951 | 1 | 0.21 | 0.389 | 0.392 | 0.54 | 0.924 | 0.569 | 0.419 | 0.366 | 1 | 0.973 | 0.546 | 0.509 | 0.929 | 0.617 | 1
2 | COc1nnc2ccc(N3CCC(c4ccc(OCCN5CCN(C)C(=O)[C@H]5C)cc4)CC3)nn12 [AZD5153] + CCN(CCO)CCCOc1ccc2c(Nc3cc(CC(=O)Nc4cccc(F)c4)[nH]n3)ncnc2c1 [AZD2811] (first compound max 1 µM, 7x7, partner max 1 µM) | 1 | 0.832 | 0.336 | 0.939 | 1 | 0.281 | 0.355 | 0.367 | 0.571 | 0.935 | 0.691 | 0.5 | 0.39 | 1 | 0.944 | 0.64 | 0.537 | 0.936 | 0.649 | 0.998
3 | COc1nnc2ccc(N3CCC(c4ccc(OCCN5CCN(C)C(=O)[C@H]5C)cc4)CC3)nn12 [AZD5153] + C[C@@H]1COCCN1C2=NC(=NC(=C2)C3(CC3)[S@](=N)(=O)C)C4=C5C=CNC5=NC=C4 [AZD6738] (first compound max 1 µM, 7x7, partner max 10 µM) | 1 | 0.901 | 0.44 | 0.991 | 1 | 0.409 | 0.295 | 0.714 | 0.702 | 0.963 | 0.869 | 0.807 | 0.5 | 1 | 0.947 | 0.634 | 0.632 | 0.973 | 0.872 | 1
4 | COc1nnc2ccc(N3CCC(c4ccc(OCCN5CCN(C)C(=O)[C@H]5C)cc4)CC3)nn12 [AZD5153] + Cc1c2c(nn1C)CSCc1cc(n(C)n1)CSc1cc(c3ccccc3c1)OCCCc1c(C(=O)O)n(C)c3c-2c(Cl)ccc13 [AZD5991] (first compound max 1 µM, 7x7, partner max 1 µM) | 1 | 0.998 | 0.798 | 1 | 1 | 0.275 | 0.567 | 0.379 | 0.652 | 0.987 | 0.744 | 0.475 | 0.376 | 1 | 1 | 0.553 | 0.651 | 0.978 | 0.997 | 1
5 | COc1nnc2ccc(N3CCC(c4ccc(OCCN5CCN(C)C(=O)[C@H]5C)cc4)CC3)nn12 [AZD5153] + Cn1cnc2c(F)c(Nc3ccc(Br)cc3Cl)c(C(=O)NOCCO)cc21 [Selumetinib] (first compound max 1 µM, 7x7, partner max 10 µM) | 1 | 0.786 | 0.564 | 1 | 1 | 0.338 | 0.355 | 0.906 | 0.548 | 0.994 | 0.61 | 0.593 | 0.299 | 1 | 0.941 | 0.576 | 0.442 | 0.994 | 0.766 | 1
6 | Cc1c2c(nn1C)CSCc1cc(n(C)n1)CSc1cc(c3ccccc3c1)OCCCc1c(C(=O)O)n(C)c3c-2c(Cl)ccc13 [AZD5991] + C1CN(CCC1(C(=O)N[C@@H](CCO)C2=CC=C(C=C2)Cl)N)C3=NC=NC4=C3C=CN4 [Capivasertib] (first compound max 1 µM, 7x7, partner max 3 µM) | 0.847 | 0.82 | 0.784 | 1 | 1 | 0.135 | 0.555 | 0.211 | 0.326 | 0.858 | 0.561 | 0.158 | 0.287 | 1 | 0.47 | 0.374 | 0.597 | 0.829 | 1 | 1
7 | Cc1c2c(nn1C)CSCc1cc(n(C)n1)CSc1cc(c3ccccc3c1)OCCCc1c(C(=O)O)n(C)c3c-2c(Cl)ccc13 [AZD5991] + C=CCn1c(=O)c2cnc(Nc3ccc(N4CCN(C)CC4)cc3)nc2n1-c1cccc(C(C)(C)O)n1 [AZD1775] (first compound max 1 µM, partner max 1 µM) | 1 | 0.86 | 0.895 | 1 | 1 | 0.269 | 0.198 | 0.545 | 0.457 | 0.885 | 0.76 | 0.27 | 0.245 | 1 | 0.818 | 0.387 | 0.679 | 1 | 0.967 | 1
8 | Cc1c2c(nn1C)CSCc1cc(n(C)n1)CSc1cc(c3ccccc3c1)OCCCc1c(C(=O)O)n(C)c3c-2c(Cl)ccc13 [AZD5991] + CC1(C)CCC(CN2CCN(c3ccc(C(=O)NS(=O)(=O)c4ccc(NCC5CCOCC5)c([N+](=O)[O-])c4)c(Oc4cnc5[nH]ccc5c4)c3)CC2)=C(c2ccc(Cl)cc2)C1 [Venetoclax] (first compound max 1 µM, 7x7, partner max 1 µM) | 0.693 | 0.692 | 0.837 | 1 | 1 | 0.129 | 0.275 | 0.265 | 0.433 | 0.902 | 0.201 | 0.135 | 0.171 | 1 | 1 | 0.296 | 0.506 | 0.974 | 0.968 | 1
9 | Cc1c2c(nn1C)CSCc1cc(n(C)n1)CSc1cc(c3ccccc3c1)OCCCc1c(C(=O)O)n(C)c3c-2c(Cl)ccc13 [AZD5991] + CCN(CCO)CCCOc1ccc2c(Nc3cc(CC(=O)Nc4cccc(F)c4)[nH]n3)ncnc2c1 [AZD2811] (first compound max 1 µM, 7x7, partner max 1 µM) | 0.959 | 0.674 | 0.875 | 1 | 1 | 0.186 | 0.308 | 0.315 | 0.41 | 0.851 | 0.599 | 0.866 | 0.305 | 1 | 0.8 | 0.292 | 0.652 | 0.976 | 0.964 | 1
10 | Cc1c2c(nn1C)CSCc1cc(n(C)n1)CSc1cc(c3ccccc3c1)OCCCc1c(C(=O)O)n(C)c3c-2c(Cl)ccc13 [AZD5991] + C[C@@H]1COCCN1C2=NC(=NC(=C2)C3(CC3)[S@](=N)(=O)C)C4=C5C=CNC5=NC=C4 [AZD6738] (first compound max 1 µM, 7x7, partner max 10 µM) | 1 | 0.864 | 0.859 | 1 | 1 | 0.377 | 0.275 | 0.369 | 0.518 | 0.902 | 0.619 | 0.34 | 0.482 | 1 | 0.833 | 0.47 | 0.643 | 1 | 1 | 1
11 | Cc1c2c(nn1C)CSCc1cc(n(C)n1)CSc1cc(c3ccccc3c1)OCCCc1c(C(=O)O)n(C)c3c-2c(Cl)ccc13 [AZD5991] + C[C@@H](Nc1cc(F)cc(F)c1)c1cc(C(=O)N(C)C)cc2c(=O)cc(N3CCOCC3)oc12 [AZD8186] (first compound max 1 µM, 7x7, partner max 3 µM) | 0.574 | 0.678 | 0.817 | 1 | 1 | 0.124 | 0.344 | 0.271 | 0.447 | 0.862 | 0.644 | 0.2 | 0.449 | 1 | 0.482 | 0.34 | 0.797 | 0.829 | 0.942 | 1
12 | Cc1c2c(nn1C)CSCc1cc(n(C)n1)CSc1cc(c3ccccc3c1)OCCCc1c(C(=O)O)n(C)c3c-2c(Cl)ccc13 [AZD5991] + Cc1cc2ncnn2cc1Nc1ncc2c(n1)n(C1CCOCC1)c(=O)n2C [AZD7648] (first compound max 1 µM, 7x7, partner max 10 µM) | 0.722 | 0.619 | 0.788 | 1 | 1 | 0.168 | 0.501 | 0.262 | 0.302 | 0.848 | 0.567 | 0.193 | 0.305 | 1 | 0.323 | 0.361 | 0.515 | 0.841 | 0.956 | 1
